From patent US9045563B2, “CXC chemokine receptor 4 (CXCR4) antagonistic polypeptide” (priority 2007, dated 2015)
Ends that are not written are not given here.

How the values were obtained:
[1] = Isoelectric point of the peptide; type: physicochemical
[2] = test system: CCR5 tropic HIV-1 NL4-3 92th014, HIV-1-7312 and SIVmac239; experiment: Infection of TZM-bl cells by R5 tropic lentiviruses; type: cell-based, SIV
X4 tropic HIV-1 NL4-3 = experiment: X4 tropic HIV-1 infection and replication in PBMC, p24 antigen ELISA; type: cell-based; settings: 100 μM peptide, day 6 post infection
Description: To analyze the effect of ALB408-423 and derivatives thereof in relevant primary cells, peripheral blood mononuclear cells were isolated from Buffy coat derived from the DRK-Blutspendedienst Baden-Württemberg-Hessen using Ficoll density centrifugation. 1×10^6 PBMC per ml were stimulated with 1 μg/ml phytohemagglutinine (PHA, Oxoid, #3085280) and 10 ng/ml Interleukin 2 (IL-2, Strathmann, #9511192) for three days. Thereafter cells were pelleted and resuspended in IL-2 containing medium. 1.5×10^5 PBMC (250 μl) were seeded in 96 well dishes, peptides were added and cells were infected with […] p24 antigen of X4 tropic HIV-1 NL4-3. Supernatants containing progeny virus were taken at day 1, 3 and 6 post infection. Virus production was measured by p24 antigen ELISA (SAIC-Frederick, Inc [AIDS & Cancer virus program]). […] In the presence of 20 μM peptides virus replication was severely impaired.
FIG. 11. ALB408-423 and derivatives inhibit X4 tropic HIV-1 infection of peripheral blood mononuclear cells (PBMC). Cells were incubated with indicated concentrations of ALB408-423 or truncated variants and infected with X4 tropic HIV-1. Supernatants obtained after 6 days were analyzed by p24 ELISA. Shown are mean p24 antigen values (ng/ml) derived from triplicate infections±standard deviation.

Sequence: LVRYTKKVPQVSTPTL [ALB408-423, LVRYTKKVPQVSTPTL]
- isoelectric point (pI) [1]: 10.3
- effect on R5 tropic lentiviral infection [2]: no effect
- p24 antigen in supernatants (X4 tropic HIV-1 NL4-3): No p24 antigen could be detected
